Results from patent publication US8017786B2, “Substituted β-phenyl-α-hydroxy-propanoic acid, synthesis method and use thereof” (Northwest University, priority 2006, dated 2011).

What was measured:
Assay type in all cases: in vivo, rat
[1] = tested on: rats with acute myocardial ischemia; assay: ST-T segment of ECG in rats with myocardial ischemia
Procedure: (§1) At 0.5 h after the rats of these groups were administered intragastrically, the standard II lead electrocardiogram (before modeling) was recorded, and the height of ST-T segment was measured. The rats of sham operation group were then subjected to coronary artery braid without ligation, and the rats of other groups were subjected to coronary artery ligation in accordance with the following method to establish cute myocardial ischemia models. The rats were subjected to etherization, fixed at supine position, and their normal electrocardiograms (before modeling) were recorded. The skin of left thorax was incised under aseptic conditions, the 4th intercostal muscles were isolated in blunt way, the heart was extruded by light pressure to the right thorax, the left anterior descending coronary artery was ligated at a position 2˜3 mm departing from the left coronary artery origin and between the pulmonary conus and the left auricle of heart, then the heart was sent back to thorax cavity immediately and sutured the incision. Penicillin was smeared topically for the prevention of infections. After operation, the electrocardiogram of postischemia was recorded immediately (at 0 min after modeling), and the height of ST-T segment was measured.

caspase-3 = assay: Immunohistochemistry protein expression in I/R myocardial tissue: caspase-3; details: for Caspase-3 protein expression, OD value: 5 days, ischemia 30 min, reperfusion 2 h
Procedure: 52 SD rats having a body weight of 220±20 g were randomly divided into model control group, salviannic acid injection group (in 1 mL/kg), and group of bornyl β-(3,4-dihydroxylphenyl)-α-hydroxylpropionate ester at a small, middle and large dose (ip 5, 15, 35 mg/kg). The rats of the normal group and the model control group were ip administered with equal-volume of physiologic saline. The rats of all groups were administered for consecutive 5 days. When the rats were administered for the last time, they were simultaneously anesthetized with 1.5% pentobarbital sodium (ip 45 mg/kg), then a catheter was inserted into the right carotid artery, and connected via a transducer to an eight-channeled physiological recorder. Tracheal cannula was performed, and the ventilation rate was maintained at 60 times/min. The chest was opened, a 6/0 suture was used to form a loop at a site 1˜2 mm from the root of the anterior descending coronary artery, and a plastic pipe was introduced through the loop, then the loop was tightened up. The change of electrocardiogram was observed. An increase or decrease of ST indicated the success of ligation. The color of the myocardial tissue below the ligation suture became darker. 30 minutes later, the plastic pipe was pulled out to allow coronary artery blood flowing again and cause hyperemia of local tissue during reperfusion. For the groups subjected to ischemia for 30 min and reperfusion for 30 min, the myocardial infarction areas were recorded before the test, after ischemia for 1 min and 30 min, and after reperfusion for 30 min; for the groups subjected to ischemia for 30 min and reperfusion for 2 h, cardiac tissue samples were taken and fixed using 10% formalin, embedded with paraffin, serially sliced into sections with a thickness of 4 μm, and separately subjected to immunohistochemistry tests; the rats of the sham operation group were subjected only to the introduction of suture but their coronary arteries were not ligated.
Standard immunohistochemistry ABC and SP methods were employed for staining. Bax: anti-rabbit polyclonal antibody (Santa CruzBio. Inc.) at a dilution of 1:200; […]: anti-rabbit polyclonal antibody (TBD Tianjin Biotechnological Center). At a dilution of […]; caspase-3: anti-rabbit polyclonal antibody (Normarkers Fromont, Calif.), at a dilution of 1:200; MMP-2: anti-murine monoclonal antibody (NormarkersFromont, Calif.) at a dilution of 1:200; PPARγ: anti-caprine polyclonal antibody (Santa Cruz Bio. Inc.), at a dilution of 1:500. The specific procedures were performed in accordance with the instructions of the ABC and SP kits, DAB was used for color development, and neutral resin was used for mounting. PBS was used instead of the first antibody as a negative control. Cells with positive expression of the test polypeptides were of brown-yellow color, with MMP-2 protein being present in acytoplasm, Bcl-2 expressed in nuclear membrane and cytoplasm, Bax mainly in cytoplasm and partially in nucleus, and caspase-3 mainly in nucleus and partially in cytoplasm. CMIAS image analysis system was used for random selection of fields of slices and automatic selection of sites for analysis, and statistic analysis was performed by using mean optical density values or integral optical density values of the obtained myocardial tissue slices.

creatine kinase (CK) = assay: Serum CK activity in rats with myocardial ischemia; details: for CK: serum, 24 h after ligation
Procedure: as §1

[2] = 10 mg/kg intragastric, 0 min after modeling
[3] = 10 mg/kg intragastric, 24 h after modeling
[4] = 20 mg/kg intragastric, 0 min after modeling
[5] = 20 mg/kg intragastric, 24 h after modeling
[6] = 40 mg/kg intragastric, 0 min after modeling
[7] = 40 mg/kg intragastric, 24 h after modeling

`CC1(C)C2CCC1(C)C(OC(=O)C(O)Cc1ccc(O)c(O)c1)C2` (stereo not drawn) [bornyl salvianate ester, bornyl β-(3,4-dihydroxylphenyl)-α-hydroxylpropionate ester] was tested, and the “Elevation of ST-T segment” value [1, 2] was 0.24 ± 0.24 mV, the “Elevation of ST-T segment, Change rate” value [1, 2] was 95.00 ± 78.34% and the “Elevation of ST-T segment” value [1, 3] was 0.17 ± 0.09 mV. For the same compound, the “Elevation of ST-T segment, Change rate” value [1, 3] was 49.00 ± 36.27%, the “Elevation of ST-T segment” value ([1]; 10 mg/kg intragastric, before modeling) was 0.21 ± 0.06 mV and the “Elevation of ST-T segment” value [1, 4] was 0.13 ± 0.16 mV. The “Elevation of ST-T segment, Change rate” value [1, 4] was 91.61 ± 116.85%, the “Elevation of ST-T segment” value [1, 5] was 0.11 ± 0.10 mV and the “Elevation of ST-T segment, Change rate” value [1, 5] was 60.77 ± 39.69%. The “Elevation of ST-T segment” value ([1]; 20 mg/kg intragastric, before modeling) was 0.17 ± 0.07 mV, the “Elevation of ST-T segment” value [1, 6] was 0.36 ± 0.17 mV and the “Elevation of ST-T segment, Change rate” value [1, 6] was 103.87 ± 148.26%. The “Elevation of ST-T segment” value [1, 7] was 0.18 ± 0.07 mV, the “Elevation of ST-T segment, Change rate” value [1, 7] was 29.01 ± 18.99 % and the “Elevation of ST-T segment” value ([1]; 40 mg/kg intragastric, before modeling) was 0.21 ± 0.06 mV. For the same compound, the “Caspase-3 protein expression, OD value” (caspase-3; 5 mg/kg ip) was 0.35 ± 0.14, the “Caspase-3 protein expression, OD value” (caspase-3; 15 mg/kg ip) was 0.32 ± 0.08 and the “Caspase-3 protein expression, OD value” (caspase-3; 35 mg/kg ip) was 0.20 ± 0.07. The “expression of caspase-3 protein (in words)” value (caspase-3; myocardial cells I/R) was “reduce the expression of Bax and caspase-3 proteins”, the CK (creatine kinase (CK); 10 mg/kg intragastric) was 1214.2 ± 160.2 U/L and the CK (creatine kinase (CK); 20 mg/kg intragastric) was 894.5 ± 176.3 U/L. For the same compound, the CK (creatine kinase (CK); 40 mg/kg intragastric) was 778.0 ± 177.1 U/L and the “activity of creatine kinase (CK) (in words)” value (creatine kinase (CK); all dose groups, 24 h later) was “decreased”.
